Experimental data published in patent US20250250269A1, “HETEROCYCLIC GLP-1 AGONISTS” (Gasherbrum Bio, Inc., priority 2022, published 2025).

Target: T1, GLP-1 Receptor (Homo sapiens, UniProt P43220)
T1 construct: host or cells: HEK293/CRE-Luc (HEK293/GLP1R/CRE-LUC)
Test: GLP-1R agonist cAMP stimulation assay (HEK293/GLP1R/CRE-LUC cells, Cisbio cAMP dynamic 2 kit)
Type: cell-based
Details: HEK293/CRE-Luc cells stably expressing the GLP-1 Receptor, 30 min at 37° C.
Summary of the method: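 HEK293 CRE-Luc cells stably expressing GLP-1R (1000 cells/well) treated with compounds in ½-log dilution for 30 min at 37 °C in DPBS with 0.5 mM IBMX and 0.1% BSA. cAMP quantified by HTRF (cAMP-d2/anti-cAMP cryptate, 1 h, room temperature), fluorescence read at 665 and 615 nm.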

T1 sequence (P43220 24-463, species assumed): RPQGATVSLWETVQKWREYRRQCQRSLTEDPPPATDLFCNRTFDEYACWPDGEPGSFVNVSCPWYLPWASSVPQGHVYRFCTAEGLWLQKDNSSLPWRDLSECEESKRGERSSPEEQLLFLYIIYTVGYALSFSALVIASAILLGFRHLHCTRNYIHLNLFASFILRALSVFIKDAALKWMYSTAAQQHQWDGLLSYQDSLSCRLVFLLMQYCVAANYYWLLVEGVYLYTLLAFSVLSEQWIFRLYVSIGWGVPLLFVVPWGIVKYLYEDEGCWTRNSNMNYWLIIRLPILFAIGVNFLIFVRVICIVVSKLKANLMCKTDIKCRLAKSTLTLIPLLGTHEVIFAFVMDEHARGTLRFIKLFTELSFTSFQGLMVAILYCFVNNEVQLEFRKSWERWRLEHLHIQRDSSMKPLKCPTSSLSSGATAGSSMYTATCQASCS

Compound | EC50 [nM]
Cc1ccc(C2(C)Oc3cccc(C4CCN(Cc5nc6cc(-c7nnc(C(F)(F)F)[nH]7)cnc6n5C[C@@H]5CCO5)CC4)c3O2)cn1 (stereo partly drawn) [Compound 56, 2-methyl-5-[2-methyl-4-{1-[(3-{[(2S)-oxetan-2-yl]methyl}-6-[5-(trifluoromethyl)-4H-1,2,4-triazol-3-yl]-3H-imidazo[4,5-b]pyridin-2-yl)methyl]piperidin-4-yl}-2H-1,3-benzodioxol-2-yl]pyridine] | < 1
O[C@@H]1CN(Cc2nc3cc(-c4nnc(C(F)(F)F)[nH]4)ncc3n2C[C@@H]2CCO2)CC[C@H]1c1cccc(OCc2ccc(Cl)cc2F)n1 [Compound 57, (3,4-trans)-4-{6-[(4-chloro-2-fluorophenyl)methoxy]pyridin-2-yl}-1-[(3-{[(2S)-oxetan-2-yl]methyl}-6-[5-(trifluoromethyl)-4H-1,2,4-triazol-3-yl]-3H-imidazo[4,5-c]pyridin-2-yl)methyl]piperidin-3-ol] | < 1
